Source: ChEMBL document CHEMBL6083270, “Synthesis and biological evaluation of 4,7,9-trisubstituted benzoxazepines as antileishmanial agents” (Bioorg Med Chem Lett, 2024)

Legend:
Leishmania mexicana = assay: Antileishmanial activity against Leishmania mexicana intracellular amastigotes; assay type: functional, organism-based
[1] = Cytotoxicity against mouse J774.A1 cells assessed as reduction in cell viability; assay type: toxicity, cell-based
[2] = Selectivity index, ratio of EC50 for mouse J774.A1 cells to EC50 for Leishmania mexicana intracellular amastigotes; assay type: toxicity, cell-based; conditions: read-out: Ratio EC50

Compound	EC50 (Leishmania mexicana)	EC50 [1]	selectivity ratio [2]
Cc1ccc(-c2cc3c(c(OCC4CCCN(C)C4)c2)OCCN(C(=O)C2CC2)C3)s1 (configuration not stated)	10.2 µM		
Cc1ccc(-c2cc(O)c3c(c2)CN(C(=O)Cc2c(C)noc2C)CCO3)s1	22.8 µM		
Cc1ccc(-c2cc3c(c(OCC4CCCN(C)C4)c2)OCCNC3)s1 (configuration not stated)	3.6 µM		
Cc1ccc(-c2cc3c(c(OCC4CCCN(C)C4)c2)OCCN(C(=O)C2CCC2)C3)s1 (configuration not stated)	4.8 µM		
Cc1noc(C)c1CC(=O)N1CCOc2c(cc(-c3cccc(Cl)c3)cc2OCC2CCCN(C)C2)C1 (configuration not stated)	0.9 µM	3.2 µM	3.6
Cc1noc(C)c1CC(=O)N1CCOc2c(cc(-c3cccc(F)c3)cc2OCC2CCCN(C)C2)C1 (configuration not stated)	2.6 µM	11.5 µM	4.4
Cc1noc(C)c1CC(=O)N1CCOc2c(cc(-c3ccc(Cl)cc3)cc2OCC2CCCN(C)C2)C1 (configuration not stated)	1.6 µM	5.5 µM	3.4
Cc1noc(C)c1CC(=O)N1CCOc2c(O)cc(-c3cccc(F)c3)cc2C1	29.5 µM		
Cc1ccc(-c2cc3c(c(OCC4CCCN(C)C4)c2)OCCN(C(=O)Cc2ccc(F)cc2)C3)s1 (configuration not stated)	4.9 µM		
Cc1ccc(-c2cc3c(c(OCC4CCCN(C)C4)c2)OCCN(C(=O)Cc2c(C)noc2C)C3)s1 (configuration not stated)	2.3 µM	4.7 µM	2
Cc1noc(C)c1CC(=O)N1CCOc2c(cc(-c3cccnc3)cc2OCC2CCCN(C)C2)C1 (configuration not stated)	29 µM	> 50 µM	
Cc1noc(C)c1CC(=O)N1CCOc2c(cc(-c3ccn(C)n3)cc2OCC2CCCN(C)C2)C1 (configuration not stated)	16.5 µM	> 50 µM	
Cc1noc(C)c1CC(=O)N1CCOc2c(O)cc(-c3cccc(Cl)c3)cc2C1	15.5 µM		
Cc1cccc(CN2CCOc3c(cc(-c4ccc(C)s4)cc3OCC3CCCN(C)C3)C2)n1 (configuration not stated)	5.3 µM		
CN1CCCC(COc2cc(-c3cccc(Cl)c3)cc3c2OCCNC3)C1 (configuration not stated)	2.2 µM		
COc1ccc(C(=O)N2CCOc3c(cc(-c4ccc(C)s4)cc3OCC3CCCN(C)C3)C2)c(OC)c1 (configuration not stated)	3.9 µM		
Cc1noc(C)c1CC(=O)N1CCOc2c(cc(CC3CC3)cc2OCC2CCCN(C)C2)C1 (configuration not stated)		> 50 µM	
Cc1noc(C)c1CC(=O)N1CCOc2c(cc(Br)cc2OCC2CCCN(C)C2)C1 (configuration not stated)		> 50 µM	
COc1cccc(C(=O)N2CCOc3c(cc(-c4ccc(C)s4)cc3OCC3CCCN(C)C3)C2)c1 (configuration not stated)	4.4 µM		
CC1=NN(C)CC1c1cc2c(c(OCC3CCCN(C)C3)c1)OCCN(C(=O)Cc1c(C)noc1C)C2 (configuration not stated)	37.5 µM	> 50 µM	
CN1CCCC(COc2cc(-c3cccc(Cl)c3)cc3c2OCCN(C(=O)Cc2ccsc2)C3)C1 (configuration not stated)	11.3 µM		
Cc1noc(C)c1CC(=O)N1CCOc2c(cc(-c3ccccc3Cl)cc2OCC2CCCN(C)C2)C1 (configuration not stated)	2.9 µM	14.7 µM	5.1
COc1ccccc1C(=O)N1CCOc2c(cc(-c3ccc(C)s3)cc2OCC2CCCN(C)C2)C1 (configuration not stated)	6.1 µM		
Cc1ccc(-c2cc3c(c(OCC4CCCN(C)C4)c2)OCCN(C(=O)c2cccc(Cn4cccn4)c2)C3)s1 (configuration not stated)	4.6 µM		
CN1CCCC(COc2cc(-c3cccc(Cl)c3)cc3c2OCCN(C(=O)c2cccs2)C3)C1 (configuration not stated)	4.6 µM		
Cc1ccc(-c2cc3c(c(OCC4CCCN(C)C4)c2)OCCN(Cc2cn(C)nc2C)C3)s1 (configuration not stated)	5.8 µM		
Cc1noc(C)c1CC(=O)N1CCOc2c(cc(-c3ccnn3C)cc2OCC2CCCN(C)C2)C1 (configuration not stated)	25 µM	> 50 µM	
CCCCCCCCCCCCCCCCOP(=O)([O-])OCC[N+](C)(C)C [MILTEFOSINE]	3.2 µM		
